# Measurements: patent publication US7737146B2, “Compound, useful for pancreatic lipase inhibition and the process for isolation thereof” (Council of Scientific and Industrial Research, priority 2005, dated 2010)
# Entries after “also recorded” stand apart in the source; their conditions may differ.
# Assay: solubility in solvents and buffers
# Type: physicochemical
compound,measurement,setting,value
"CCCCCCCCCCCC/C=C/CCCCC(=O)Oc1nc2ccccc2nc1OP(O)(=S)OCCCCCCCCCCCCCCCC (stereo not shown) [streptolipin, Nonadeca-6-enoic acid-3-(hexadecyloxy-hydroxy-thiophosphoryloxy)-quinoxalin-2-yl ester]",Solubility response,5% acetic acid,Insoluble
same,Solubility response,5% sodium bicarbonate,Insoluble
same,Solubility response,5% sodium hydroxide,Insoluble
same,Solubility response,Acetone,Soluble
same,Solubility response,Acetonitrile,slightly soluble; also recorded: Sparingly soluble
same,Solubility response,Chloroform,Soluble
same,Solubility response,Diethyl ether,slightly soluble; also recorded: Sparingly soluble
same,Solubility response,Dimethyl sulphoxide,Soluble
same,Solubility response,Ethanol,Sparingly soluble
same,Solubility response,Ethyl acetate,slightly soluble; also recorded: Sparingly soluble
same,Solubility response,Hexane,Sparingly soluble
same,Solubility response,Methanol,slightly soluble; also recorded: Sparingly soluble
same,Solubility response,Phosphate buffer (pH 7.4-8.0),Insoluble
same,Solubility response,"acetate buffer (pH 5.0, 6.0)",Insoluble
same,Solubility response,"tris buffer (pH 8.0, 9.0)",Insoluble
same,Solubility response,water,Insoluble
